In brackets after ≈: the same amount, converted by molar mass.
Columns and labels:
KB = assay: Cytotoxicity against human KB cells; assay type: functional, cell-based
[1] = Cytotoxicity against breast cancer cells; assay type: functional, cell-based; settings: Cancer cell lines
[2] = tested on: Mycobacterium tuberculosis; assay: Antitubercular activity against Mycobacterium tuberculosis H37Ra; assay type: functional

Q: For COc1cc2c(cc1O)CCN[C@]21CS[C@@H]2c3c(OC(C)=O)c(C)c4c(c3[C@H](COC1=O)N1[C@@H]2[C@H]2c3c(cc(C)c(OC)c3O)C[C@@H]([C@@H]1C#N)N2C)OCO4 [ECTEINASCIDIN 770], which IC50 (KB) is on record?
A: The IC50 was 0.034 nM.

Q: What about the IC50 [1] of the same molecule?
A: The IC50 was 2.5 nM.

Q: And the MIC [2]?
A: The MIC was 0.13 µM (≈ 0.1 µg/mL).

Q: Which IC50 (KB) does the source give for COc1cc2c(cc1O)CCN[C@]21C[S+]([O-])[C@@H]2c3c(OC(C)=O)c(C)c4c(c3[C@H](COC1=O)N1[C@@H]2[C@@H]2c3c(cc(C)c(OC)c3O)C[C@@H]([C@@H]1C#N)N2C)OCO4 (stereo partly specified) [ECTEINASCIDIN 786] here?
A: The IC50 was 0.15 nM.

Q: And the IC50 [1]?
A: The IC50 was 7.6 nM.

Q: What about the MIC [2] of the same molecule?
A: Its MIC is 2 µM (≈ 1.57 µg/mL).
